# Results published in patent US20240382629A1, “HETEROBIVALENT AND HOMOBIVALENT AGENTS TARGETING FIBROBLAST ACTIVATION PROTEIN ALPHA AND/OR PROSTATE-SPECIFIC MEMBRANE ANTIGEN” (The Johns Hopkins University, priority 2021, published 2024).
# Tested on: U87 tumor
# Assay: PET imaging and tissue biodistribution in U87 tumor-bearing mice
# Type: in vivo, mouse
# Conditions: for Biodistribution: Bladder / Biodistribution: Blood / Biodistribution: Bone / Biodistribution: Fat / Biodistribution: Heart / Biodistribution: Kidney / Biodistribution: Lac.gl / Biodistribution: Liver / Biodistribution: Lung / Biodistribution: Muscle / Biodistribution: Pancreas / Biodistribution: Sal.gl / Biodistribution: Sm.in / Biodistribution: Spleen / Biodistribution: Stomach / Biodistribution: Tumor: in %ID/g
# Experimental: Cell uptake assays, flow cytometry, and IHC were performed as described previously. Banerjee et al., 2019; Nimmagadda et al., 2018. PET imaging and biodistribution Sequential PET imaging and biodistribution studies were conducted to quantify and validate PET imaging data. Briefly, tumor-bearing mice were administrated approximately 7.4 MBq of radiotracer in 150 μL saline via tail-vein injection. They were randomized into the indicated groups of 3-4 mice before radiotracer injection.
# In Experiment 1, bilateral xenografts of U87 (right flank) and PSMA+ PC3 PIP (left flank) tumors were established in male NSG mice (n=3), which underwent imaging followed by biodistribution over 24 h. […] A biodistribution study was further conducted with U87 tumors at 2 h post-injection (n=3) to compare the tissue distribution properties of ^64Cu-FP-L1 and ^64Cu-FAPI-04.
# [1] = 1 h, NSG mice, U87 tumor, n=3-4
# [2] = 1 h block, 10 nmol FAPI-04, NSG mice, U87 tumor
# [3] = 2 h (n = 4), NSG mice, U87 tumor
structure (smiles),measurement,setting,value
"N#C[C@@H]1CCCN1C(=O)CNC(=O)c1ccnc2ccc(OCCCNC(=O)CCc3cn(CCOCCOCCOCCC(=O)N[C@@H](CCCCNC(=O)CN4CCN(CC(=O)O)CCN(CC(=O)O)CC4)C(=O)NCCCCC(=O)N(CCCC[C@H](NC(=O)N[C@@H](CCC(=O)O)C(=O)O)C(=O)O)Cc4ccc(Br)cc4)nn3)cc12 [^64Cu-FP-L1, metal not drawn]",Biodistribution: Bladder,[1],2.41 ± 0.62
same,Biodistribution: Blood,[1],10.12 ± 3.23
same,Biodistribution: Bone,[1],4.17 ± 0.13
same,Biodistribution: Fat,[1],0.77 ± 0.12
same,Biodistribution: Heart,[1],3.42 ± 2.73
same,Biodistribution: Kidney,[1],21.58 ± 5.33
same,Biodistribution: Lac.gl,[1],5.47 ± 4.13
same,Biodistribution: Liver,[1],5.35 ± 0.43
same,Biodistribution: Lung,[1],5.32 ± 1.42
same,Biodistribution: Muscle,[1],2.29 ± 0.08
same,Biodistribution: Pancreas,[1],7.17 ± 1.19
same,Biodistribution: Sal.gl,[1],12.01 ± 3.62
same,Biodistribution: Sm.in,[1],4.22 ± 1.78
same,Biodistribution: Spleen,[1],2.20 ± 0.54
same,Biodistribution: Stomach,[1],2.51 ± 0.25
same,Biodistribution: Tumor,[1],12.04 ± 2.39
same,Biodistribution: Bladder,[2],1.22 ± 0.15
same,Biodistribution: Blood,[2],1.38 ± 0.19
same,Biodistribution: Bone,[2],0.72 ± 0.08
same,Biodistribution: Fat,[2],0.31 ± 0.04
same,Biodistribution: Heart,[2],0.94 ± 0.35
same,Biodistribution: Kidney,[2],6.09 ± 0.18
same,Biodistribution: Lac.gl,[2],1.48 ± 0.45
same,Biodistribution: Liver,[2],6.19 ± 1.06
same,Biodistribution: Lung,[2],2.63 ± 0.27
same,Biodistribution: Muscle,[2],0.38 ± 0.05
same,Biodistribution: Pancreas,[2],1.01 ± 0.10
same,Biodistribution: Sal.gl,[2],2.00 ± 0.19
same,Biodistribution: Sm.in,[2],3.00 ± 0.22
same,Biodistribution: Spleen,[2],1.55 ± 0.07
same,Biodistribution: Stomach,[2],1.96 ± 0.07
same,Biodistribution: Tumor,[2],4.37 ± 0.70
same,Biodistribution: Bladder,[3],2.68 ± 0.83
same,Biodistribution: Blood,[3],9.93 ± 2.13
same,Biodistribution: Bone,[3],5.36 ± 1.89
same,Biodistribution: Fat,[3],0.66 ± 0.52
same,Biodistribution: Heart,[3],4.62 ± 0.68
same,Biodistribution: Kidney,[3],26.85 ± 7.39
same,Biodistribution: Lac.gl,[3],8.11 ± 1.24
same,Biodistribution: Liver,[3],6.15 ± 0.65
same,Biodistribution: Lung,[3],5.65 ± 1.54
same,Biodistribution: Muscle,[3],2.10 ± 0.13
same,Biodistribution: Pancreas,[3],5.98 ± 0.58
same,Biodistribution: Sal.gl,[3],8.96 ± 1.47
same,Biodistribution: Sm.in,[3],6.12 ± 1.91
same,Biodistribution: Spleen,[3],2.68 ± 0.62
same,Biodistribution: Stomach,[3],2.19 ± 0.33
same,Biodistribution: Tumor,[3],14.65 ± 3.68
same,"Tumor uptake, FAP+ U87 tumor","2 h, bilateral U87 / PSMA+ PC3 PIP model",16.96±5.01 % ID/g
same,Uptake in U87 tumor with FAP blockade,"2 h, blocking with FAPI-04 (500 nmol/kg)",2.47±0.82 % ID/g
same,Biodistribution: Bladder,2 h Nude mice (n = 4),1.80 ± 0.24
same,Biodistribution: Blood,2 h Nude mice (n = 4),6.50 ± 1.05
same,Biodistribution: Bone,2 h Nude mice (n = 4),3.51 ± 0.45
same,Biodistribution: Fat,2 h Nude mice (n = 4),0.86 ± 0.03
same,Biodistribution: Heart,2 h Nude mice (n = 4),2.77 ± 0.25
same,Biodistribution: Kidney,2 h Nude mice (n = 4),11.66 ± 0.95
same,Biodistribution: Lac.gl,2 h Nude mice (n = 4),5.44 ± 0.78
same,Biodistribution: Liver,2 h Nude mice (n = 4),4.16 ± 0.66
same,Biodistribution: Lung,2 h Nude mice (n = 4),4.37 ± 0.48
same,Biodistribution: Muscle,2 h Nude mice (n = 4),1.80 ± 0.26
same,Biodistribution: Pancreas,2 h Nude mice (n = 4),5.04 ± 0.36
same,Biodistribution: Sal.gl,2 h Nude mice (n = 4),5.60 ± 0.94
same,Biodistribution: Sm.in,2 h Nude mice (n = 4),4.33 ± 1.13
same,Biodistribution: Spleen,2 h Nude mice (n = 4),1.88 ± 0.35
same,Biodistribution: Stomach,2 h Nude mice (n = 4),2.02 ± 0.22
same,Biodistribution: Tumor,2 h Nude mice (n = 4),7.25 ± 1.24
same,Biodistribution: Bladder,"4 h, NSG mice, U87 tumor",1.72 ± 0.33
same,Biodistribution: Blood,"4 h, NSG mice, U87 tumor",3.91 ± 0.73
same,Biodistribution: Bone,"4 h, NSG mice, U87 tumor",2.39 ± 0.37
same,Biodistribution: Fat,"4 h, NSG mice, U87 tumor",0.53 ± 0.10
same,Biodistribution: Heart,"4 h, NSG mice, U87 tumor",2.13 ± 0.17
same,Biodistribution: Kidney,"4 h, NSG mice, U87 tumor",16.57 ± 2.68
